{"source": "patent US10189841B2", "about": "“Purinones as ubiquitin-specific protease 1 inhibitors” (Forma Therapeutics, Inc., priority 2015, dated 2019)", "molecular_target": "USP1 (construct USP1 (I-785, GG670, 671AA)/UAF1 (I-677)-Flag) (Homo sapiens (Human), UniProt O94782, G670A/G671A)", "sequence (O94782 whole entry G670A/G671A)": "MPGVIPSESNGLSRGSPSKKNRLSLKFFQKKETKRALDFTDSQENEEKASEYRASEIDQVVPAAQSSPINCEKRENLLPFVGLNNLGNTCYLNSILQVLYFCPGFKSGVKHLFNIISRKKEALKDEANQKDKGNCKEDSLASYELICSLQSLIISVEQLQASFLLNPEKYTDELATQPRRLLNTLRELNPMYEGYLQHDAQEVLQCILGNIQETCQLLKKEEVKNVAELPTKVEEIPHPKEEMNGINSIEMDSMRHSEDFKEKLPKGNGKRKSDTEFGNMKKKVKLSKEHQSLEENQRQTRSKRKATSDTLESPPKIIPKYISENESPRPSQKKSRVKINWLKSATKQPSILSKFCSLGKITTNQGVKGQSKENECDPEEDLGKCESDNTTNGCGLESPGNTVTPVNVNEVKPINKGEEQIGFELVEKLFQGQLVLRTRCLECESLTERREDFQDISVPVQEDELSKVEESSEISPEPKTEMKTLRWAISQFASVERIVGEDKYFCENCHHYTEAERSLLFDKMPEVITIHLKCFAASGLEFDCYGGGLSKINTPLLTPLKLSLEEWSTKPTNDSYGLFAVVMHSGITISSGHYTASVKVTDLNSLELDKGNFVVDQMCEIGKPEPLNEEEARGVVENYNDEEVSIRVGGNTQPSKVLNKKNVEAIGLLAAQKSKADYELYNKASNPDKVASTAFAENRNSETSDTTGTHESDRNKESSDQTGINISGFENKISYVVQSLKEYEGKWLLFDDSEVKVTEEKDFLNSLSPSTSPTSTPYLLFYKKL", "sequence (Q8TAF3 whole entry partner)": "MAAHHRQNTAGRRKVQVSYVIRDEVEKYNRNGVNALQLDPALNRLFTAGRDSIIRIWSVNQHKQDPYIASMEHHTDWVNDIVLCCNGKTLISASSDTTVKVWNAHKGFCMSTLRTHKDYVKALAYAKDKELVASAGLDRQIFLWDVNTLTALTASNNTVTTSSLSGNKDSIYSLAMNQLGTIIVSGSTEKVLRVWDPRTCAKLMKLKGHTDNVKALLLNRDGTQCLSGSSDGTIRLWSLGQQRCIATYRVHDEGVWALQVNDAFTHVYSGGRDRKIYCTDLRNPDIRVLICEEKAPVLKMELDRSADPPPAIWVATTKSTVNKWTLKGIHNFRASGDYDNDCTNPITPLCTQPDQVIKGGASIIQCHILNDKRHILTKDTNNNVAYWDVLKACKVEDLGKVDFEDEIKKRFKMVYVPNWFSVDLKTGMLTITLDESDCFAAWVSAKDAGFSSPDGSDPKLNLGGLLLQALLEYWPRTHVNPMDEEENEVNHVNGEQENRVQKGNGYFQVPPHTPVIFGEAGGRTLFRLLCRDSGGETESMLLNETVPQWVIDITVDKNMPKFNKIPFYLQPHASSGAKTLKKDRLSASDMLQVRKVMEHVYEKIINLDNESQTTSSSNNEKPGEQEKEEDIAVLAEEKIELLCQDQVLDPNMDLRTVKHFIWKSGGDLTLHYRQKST", "assay": "Ubiquitin-Rhodamine 110 assay for USP1 activity", "format": "biochemical", "settings": "USP1/UAF1 25 pM, Ub-Rh110 25 nM, 30 min preincubation", "in_short": "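Two formats with the USP1/UAF1 complex and 25 nM ubiquitin-rhodamine 110 in pH 8.0 Tris buffer with calcium, glutathione and detergent. Single-point screening used 10 µM, 100 pM enzyme and 45 min. Inhibition was set against no-enzyme and DMSO wells.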"}
{"compound": "CC(C)c1ncccc1-c1ncc2[nH]c(=O)n(Cc3ccc(-c4nc(C(F)(F)F)cn4C)c(F)c3)c2n1", "note": "[Compound I-83, 9-(3-fluoro-4-(1-methyl-4-(trifluoromethyl)-1H-imidazol-2-yl)benzyl)-2-(2-isopropylpyridin-3-yl)-7,9-dihydro-8H-purin-8-one]", "values": [{"measurement": "IC50", "result": "< 50", "unit": "nM"}]}
{"compound": "CC(C)c1ncccc1-c1ncc2[nH]c(=O)n(Cc3ccc(-c4nc(C(F)(F)F)cn4C)cc3F)c2n1", "note": "[Compound I-84, 9-(2-fluoro-4-(1-methyl-4-(trifluoromethyl)-1H-imidazol-2-yl)benzyl)-2-(2-isopropylpyridin-3-yl)-7,9-dihydro-8H-purin-8-one]", "values": [{"measurement": "IC50", "result": "< 50", "unit": "nM"}]}
{"compound": "CC(C)c1ncccc1-c1ncc2[nH]c(=O)n(Cc3c(F)cc(-c4nc(C(F)(F)F)cn4C)cc3F)c2n1", "note": "[Compound I-85, 9-(2,6-difluoro-4-(1-methyl-4-(trifluoromethyl)-1H-imidazol-2-yl)benzyl)-2-(2-isopropylpyridin-3-yl)-7,9-dihydro-8H-purin-8-one]", "values": [{"measurement": "IC50", "result": "50 to 200", "unit": "nM"}]}
{"compound": "Cn1cc(C(F)(F)F)nc1-c1ccc(Cn2c(=O)[nH]c3cnc(-c4ccccc4[S+](C)[O-])nc32)cc1", "note": "(stereo not shown) [Compound I-86, 9-(4-(1-methyl-4-(trifluoromethyl)-1H-imidazol-2-yl)benzyl)-2-(2-(methylsulfinyl)phenyl)-7,9-dihydro-8H-purin-8-one]", "values": [{"measurement": "IC50", "result": "200 to 2000", "unit": "nM"}]}
{"compound": "CC(C)c1ncccc1-c1ncc2[nH]c(=O)n(Cc3ccc(-c4nc(C(F)F)cn4C)cc3)c2n1", "note": "[Compound I-87, 9-(4-(4-(difluoromethyl)-1-methyl-1H-imidazol-2-yl)benzyl)-2-(2-isopropylpyridin-3-yl)-7,9-dihydro-8H-purin-8-one]", "values": [{"measurement": "IC50", "result": "50 to 200", "unit": "nM"}]}
{"compound": "O=c1[nH]c2cnc(-c3cccnc3OC(F)F)nc2n1Cc1ccc(-n2ccc(F)n2)cc1", "note": "[Compound I-88, 2-(2-(difluoromethoxy)pyridin-3-yl)-9-(4-(3-fluoro-1H-pyrazol-1-yl)benzyl)-7,9-dihydro-8H-purin-8-one]", "values": [{"measurement": "IC50", "result": "200 to 2000", "unit": "nM"}]}
{"compound": "O=c1[nH]c2cnc(-c3ccccc3OC(F)F)nc2n1Cc1ccc(-n2ccc(F)n2)cc1", "note": "[Compound I-89, 2-(2-(difluoromethoxy)phenyl)-9-(4-(3-fluoro-1H-pyrazol-1-yl)benzyl)-7,9-dihydro-8H-purin-8-one]", "values": [{"measurement": "IC50", "result": "200 to 2000", "unit": "nM"}]}
{"compound": "CN(C)c1ccccc1-c1ncc2[nH]c(=O)n(Cc3ccc(-c4nc(C(F)(F)F)cn4C)cc3)c2n1", "note": "[Compound I-90, 2-(2-(dimethylamino)phenyl)-9-(4-(1-methyl-4-(trifluoromethyl)-1H-imidazol-2-yl)benzyl)-7,9-dihydro-8H-purin-8-one]", "values": [{"measurement": "IC50", "result": "< 50", "unit": "nM"}]}
{"compound": "Cc1cccc(-c2ncc3[nH]c(=O)n(Cc4ccc(-n5cccn5)cc4)c3n2)c1C(C)C", "note": "[Compound I-91, 9-(4-(1H-pyrazol-1-yl)benzyl)-2-(2-isopropyl-3-methylphenyl)-7,9-dihydro-8H-purin-8-one]", "values": [{"measurement": "IC50", "result": "< 50", "unit": "nM"}]}
{"compound": "COc1cccc(-c2ncc3[nH]c(=O)n(Cc4ccc(-n5cccn5)cc4)c3n2)c1C(C)C", "note": "[Compound I-92, 9-(4-(1H-pyrazol-1-yl)benzyl)-2-(2-isopropyl-3-methoxyphenyl)-7,9-dihydro-8H-purin-8-one]", "values": [{"measurement": "IC50", "result": "200 to 2000", "unit": "nM"}]}
{"compound": "CC(C)c1c(Cl)cccc1-c1ncc2[nH]c(=O)n(Cc3ccc(-n4cccn4)cc3)c2n1", "note": "[Compound I-93, 9-(4-(1H-pyrazol-1-yl)benzyl)-2-(3-chloro-2-isopropylphenyl)-7,9-dihydro-8H-purin-8-one]", "values": [{"measurement": "IC50", "result": "50 to 200", "unit": "nM"}]}
{"compound": "O=c1[nH]c2cnc(-c3ccccc3C3CC3)nc2n1Cc1ccc(-n2cccn2)cc1", "note": "[Compound I-94, 9-(4-(1H-pyrazol-1-yl)benzyl)-2-(2-cyclopropylphenyl)-7,9-dihydro-8H-purin-8-one]", "values": [{"measurement": "IC50", "result": "< 50", "unit": "nM"}]}
{"compound": "O=c1[nH]c2cnc(-c3cc(Cl)ccc3C3CC3)nc2n1Cc1ccc(-n2cccn2)cc1", "note": "[Compound I-95, 9-(4-(1H-pyrazol-1-yl)benzyl)-2-(5-chloro-2-cyclopropylphenyl)-7,9-dihydro-8H-purin-8-one]", "values": [{"measurement": "IC50", "result": "< 50", "unit": "nM"}]}
{"compound": "CC(C)c1cccc(F)c1-c1ncc2[nH]c(=O)n(Cc3ccc(-n4cccn4)cc3)c2n1", "note": "[Compound I-96, 9-(4-(1H-pyrazol-1-yl)benzyl)-2-(2-fluoro-6-isopropylphenyl)-7,9-dihydro-8H-purin-8-one]", "values": [{"measurement": "IC50", "result": "< 50", "unit": "nM"}]}
{"compound": "O=c1[nH]c2cnc(-c3cc(C(F)(F)F)ccc3C3CC3)nc2n1Cc1ccc(-n2cccn2)cc1", "note": "[Compound I-97, 9-(4-(1H-pyrazol-1-yl)benzyl)-2-(2-cyclopropyl-5-(trifluoromethyl)phenyl)-7,9-dihydro-8H-purin-8-one]", "values": [{"measurement": "IC50", "result": "200 to 2000", "unit": "nM"}]}
{"compound": "CCOC(=O)c1cc(C)nn1-c1ccc(Cn2c(=O)[nH]c3cnc(-c4ccccc4C4CC4)nc32)cc1", "note": "[Compound I-99, ethyl 1-(4-((2-(2-cyclopropylphenyl)-8-oxo-7,8-dihydro-9H-purin-9-yl)methyl)phenyl)-3-methyl-1H-pyrazole-5-carboxylate]", "values": [{"measurement": "IC50", "result": "< 50", "unit": "nM"}]}
{"compound": "Cn1cc(C(F)(F)F)nc1-c1ccc(Cn2c(=O)n(C3CC3)c3cnc(-c4ccccc4C4CC4)nc32)cc1", "note": "[Compound I-100, 7-cyclopropyl-2-(2-cyclopropylphenyl)-9-(4-(1-methyl-4-(trifluoromethyl)-1H-imidazol-2-yl)benzyl)-7,9-dihydro-8H-purin-8-one]", "values": [{"measurement": "IC50", "result": "< 50", "unit": "nM"}]}
{"compound": "Cn1cc(C(F)(F)F)nc1-c1ccc(Cn2c(=O)n(C3CC3)c3cnc(-c4cccnc4C4CC4)nc32)cc1", "note": "[Compound I-101, 7-cyclopropyl-2-(2-cyclopropylpyridin-3-yl)-9-(4-(1-methyl-4-(trifluoromethyl)-1H-imidazol-2-yl)benzyl)-7,9-dihydro-8H-purin-8-one]", "values": [{"measurement": "IC50", "result": "< 50", "unit": "nM"}]}
{"compound": "CC(C)c1ccccc1-c1ncc2[nH]c(=O)n(Cc3ccc(-n4ncc5c4CNC5)cc3)c2n1", "note": "[Compound I-102, 9-(4-(5,6-dihydropyrrolo[3,4-c]pyrazol-1(4H)-yl)benzyl)-2-(2-isopropylphenyl)-7,9-dihydro-8H-purin-8-one]", "values": [{"measurement": "IC50", "result": "200 to 2000", "unit": "nM"}]}
{"compound": "CC(C)c1c(F)cccc1-c1ncc2[nH]c(=O)n(Cc3ccc(-n4ncc5c4CNC5)cc3)c2n1", "note": "[Compound I-103, 9-(4-(5,6-dihydropyrrolo[3,4-c]pyrazol-1(4H)-yl)benzyl)-2-(3-fluoro-2-isopropylphenyl)-7,9-dihydro-8H-purin-8-one]", "values": [{"measurement": "IC50", "result": "50 to 200", "unit": "nM"}]}
{"compound": "CC(C)c1c(F)cccc1-c1ncc2[nH]c(=O)n(Cc3ccc(-n4cc5c(n4)CNC5)cc3)c2n1", "note": "[Compound I-104, 9-(4-(5,6-dihydropyrrolo[3,4-c]pyrazol-2(4H)-yl)benzyl)-2-(3-fluoro-2-isopropylphenyl)-7,9-dihydro-8H-purin-8-one]", "values": [{"measurement": "IC50", "result": "200 to 2000", "unit": "nM"}]}
{"compound": "CC(C)c1ncccc1-c1ncc2c(n1)n(Cc1ccc(-c3nc(C(F)(F)F)cn3C)cc1)c(=O)n2C", "note": "[Compound I-105, 2-(2-Isopropylpyridin-3-yl)-7-methyl-9-(4-(1-methyl-4-(trifluoromethyl)-1H-imidazol-2-yl)benzyl)-7,9-dihydro-8H-purin-8-one]", "values": [{"measurement": "IC50", "result": "< 50", "unit": "nM"}]}
{"compound": "CC(C)c1ccccc1-c1ncc2c(n1)n(Cc1ccc(-c3nc(C(F)(F)F)cn3CCO)cc1)c(=O)n2C", "note": "[Compound I-106, 9-(4-(1-(2-Hydroxyethyl)-4-(trifluoromethyl)-1H-imidazol-2-yl)benzyl)-2-(2-isopropylphenyl)-7-methyl-7,9-dihydro-8H-purin-8-one]", "values": [{"measurement": "IC50", "result": "< 50", "unit": "nM"}]}
{"compound": "CC(C)c1ccccc1-c1ncc2c(n1)n(Cc1ccc(-n3cccn3)cc1)c(=O)n2CCN(C)C", "note": "[Compound I-107, 9-(4-(1H-pyrazol-1-yl)benzyl)-7-(2-(dimethylamino)ethyl)-2-(2-isopropylphenyl)-7,9-dihydro-8H-purin-8-one]", "values": [{"measurement": "IC50", "result": "200 to 2000", "unit": "nM"}]}
{"compound": "CC(C)c1ncccc1-c1ncc2c(n1)n(C1(c3ccc(-c4nc(C(F)(F)F)cn4C)cc3)CC1)c(=O)n2C", "note": "[Compound I-108, 2-(2-isopropylpyridin-3-yl)-7-methyl-9-(1-(4-(1-methyl-4-(trifluoromethyl)-1H-imidazol-2-yl)phenyl)cyclopropyl)-7,9-dihydro-8H-purin-8-one]", "values": [{"measurement": "IC50", "result": "< 50", "unit": "nM"}]}
{"compound": "Cc1cc(N2CCC2)nn1-c1ccc(Cn2c(=O)n(C)c3cnc(-c4cccnc4C(C)C)nc32)cc1", "note": "[Compound I-109, 9-(4-(3-(azetidin-1-yl)-5-methyl-1H-pyrazol-1-yl)benzyl)-2-(2-isopropylpyridin-3-yl)-7-methyl-7,9-dihydro-8H-purin-8-one]", "values": [{"measurement": "IC50", "result": "50 to 200", "unit": "nM"}]}
{"compound": "CC(C)c1ccccc1-c1ncc2c(n1)n(Cc1ccc(-c3nc(C(F)(F)F)cn3C3COC3)cc1)c(=O)n2C", "note": "[Compound I-110, 2-(2-isopropylphenyl)-7-methyl-9-(4-(1-(oxetan-3-yl)-4-(trifluoromethyl)-1H-imidazol-2-yl)benzyl)-7,9-dihydro-8H-purin-8-one]", "values": [{"measurement": "IC50", "result": "< 50", "unit": "nM"}]}
{"compound": "Cc1cc(C)n([C@H]2CC[C@@H](Cn3c(=O)n(C)c4cnc(-c5ccccc5C(C)C)nc43)CC2)n1", "note": "[Compound I-111, 9-(((1s,4s)-4-(3,5-dimethyl-1H-pyrazol-1-yl)cyclohexyl)methyl)-2-(2-isopropylphenyl)-7-methyl-7,9-dihydro-8H-purin-8-one]", "values": [{"measurement": "IC50", "result": "50 to 200", "unit": "nM"}]}
{"compound": "Cc1cc(C)n([C@H]2CC[C@H](Cn3c(=O)n(C)c4cnc(-c5ccccc5C(C)C)nc43)CC2)n1", "note": "[Compound I-112, 9-(((1r,4r)-4-(3,5-dimethyl-1H-pyrazol-1-yl)cyclohexyl)methyl)-2-(2-isopropylphenyl)-7-methyl-7,9-dihydro-8H-purin-8-one]", "values": [{"measurement": "IC50", "result": "> 2000", "unit": "nM"}]}
{"compound": "Cc1cc(C(F)(F)F)nn1-c1ccc(Cn2c(=O)n(C)c3cnc(-c4cccnc4C(C)C)nc32)cc1", "note": "[Compound I-113, 2-(2-isopropylpyridin-3-yl)-7-methyl-9-(4-(5-methyl-3-(trifluoromethyl)-1H-pyrazol-1-yl)benzyl)-7,9-dihydro-8H-purin-8-one]", "values": [{"measurement": "IC50", "result": "< 50", "unit": "nM"}]}
{"compound": "CC(C)c1ncccc1-c1ncc2c(n1)n(Cc1ccc(-c3nc(C(F)(F)F)cn3C3CC3)cc1)c(=O)n2C", "note": "[Compound I-114, 9-(4-(1-cyclopropyl-4-(trifluoromethyl)-1H-imidazol-2-yl)benzyl)-2-(2-isopropylpyridin-3-yl)-7-methyl-7,9-dihydro-8H-purin-8-one]", "values": [{"measurement": "IC50", "result": "< 50", "unit": "nM"}]}
